In one data set the test system is HL-60 cells. In words: MTT cytotoxicity assay, HL-60 promyelocytic leukemia cells. In kind it is cell-based, human. To be noted: 3 days incubation, mean of three independent experiments (± standard deviation). The method, then:
(§1) The compounds were tested for their cytotoxic activity on a solid tumor cell line, i.e. HT-1080 originating from a fibrosarcoma (American Type Culture Collection; ATCC, Rockville, MD, USA), and on two leukemia cell lines, i.e. the HL-60 human promyelocytic leukemia (European Collection of Animal Cell Cultures; ECACC, Salisbury, UK) and the K-562 human chronic myelogenous leukemia (ATCC). Furthermore, the human skin fibroblast strain AG01523 (Coriell Institute for Medical Research, Camden, NJ, USA) was also used as normal control. Adherent cells were routinely cultured in Dulbecco’s […] (DMEM), and leukemia cells in RPMI 1640, in an environment of 5% CO2, 85% humidity, and 37 °C. All media were supplemented with penicillin (100 U/ml), streptomycin (100 μg/ml) (media and antibiotics from Biochrom KG, Berlin, Germany), and 10% fetal bovine serum (Life Technologies Europe BV, Thessaloniki, Greece). Adherent cells were subcultured using a trypsin (0.25%; Life Technologies Europe BV)—citrate (0.30%; Sigma, St. Louis, MO, USA) solution. The cytotoxicity assay was performed by a modification of the MTT method. Briefly, the cells were plated in flat-bottomed 96-well microplates at a density of 5000 cells/well, and incubated overnight before the addition of serial dilutions of the test compounds. The cells were incubated with the compounds or the corresponding vehicle (DMSO) concentrations for 3 days. Then, the medium was replaced with MTT (Sigma) in serum-free, phenol-red-free DMEM (1 mg/ml). After incubation for 4 h, the MTT formazan was solubilized in 2-propanol, and the optical density was measured using a FLUOstar Optima (BMG Labtech, Ortenberg, Germany) microplate reader at a wavelength of 550 nm (reference wavelength 660 nm). Doxorubicin hydrochloride (Sigma) was included in the experiments as positive control. The results represent the mean of three independent experiments and are expressed as IC50 [42].

The next data set deals with K-562 cells. As to the kind of experiment: MTT cytotoxicity assay, K-562 chronic myelogenous leukemia cells. Format: cell-based, human. To be noted: 3 days incubation, mean of three independent experiments (± standard deviation). The method, then:
as §1
In general terms: Tetrazolium assays rely on reduction of a dye to a coloured formazan, in cell work by metabolically active cells.

Another data set has as its system AG01523 fibroblasts. In words: MTT cytotoxicity assay, normal skin fibroblast strain AG01523. In kind it is cell-based. To be noted: normal human skin fibroblasts, 3 days incubation, mean of three independent experiments (± standard deviation). As for the experimental part:
as §1

The test system of the next data set is HT-1080 cells. In words: MTT cytotoxicity assay, HT-1080 fibrosarcoma cells. Format: cell-based, human. To be noted: 3 days incubation, mean of three independent experiments (± standard deviation). The method, then:
as §1

A value given as a limit tells only on which side of the number the result lay.

Usually IC50 stands for the concentration that gives 50% inhibition. The low end stands for greater potency, the high end for weaker potency.

For `COc1cc(C=C2SC(=S)NC2=O)ccc1OCc1nc2ccccc2c(=O)n1-c1ccc(C(F)(F)F)cc1` [Compound 47], the IC50 in the data set on HL-60 cells is 2.6 µM; with K-562 cells it was 5.1 µM; in the data set on AG01523 fibroblasts it was greater than 100 µM; with HT-1080 cells it was 15.8 µM. Also, the “IC50 HL-60 cytotoxicity” value in the data set on HL-60 cells is “low micromolar range”. Moreover, the “IC50 K-562 cytotoxicity” value with K-562 cells was “low micromolar range”.

Values taken from paper PMC5640562, “Synthesis and anticancer activity of novel quinazolinone-based rhodanines” (Chemistry Central Journal, 2017).
